Experimental data: patent US20220031800A1, “PEPTIDES FOR TREATING NON-EXUDATIVE MACULAR DEGENERATION AND OTHER DISORDERS OF THE EYE” (Allegro Pharmaceuticals, LLC, priority 2019, published 2022)
Square brackets hold non-standard residues; d marks the D form. Peptide text beside a SMILES is read from it. Cya = N[C@@H](CS(=O)(=O)O)C(=O)O

Key:
[1] = tested on: study eye of subjects with intermediate non-exudative AMD; experiment: SD-OCT Analysis 1 (thickness and volume of retinal layers, EZ defect area, GA); assay type: in vivo, human
Method: Numerous study assessments were conducted at various time points throughout the study. Included among these study assessments were; refractive eye examinations, determinations of BCVA AND low-luminance BCVA, Lanthony D-15 color vision test, measurement of intraocular pressure (IOP), Indirect ophthalmoscopy/dilated fundus examinations and spectral-domain optical coherence tomography (SD-OCT). Also, blood and saliva samples were obtained from each subject for genetic analysis. The above-listed study assessments were performed at the time points indicated in Table 1, below: The OCT scans were analyzed by two (2) unrelated experts. The mean thickness and mean volume of retinal subfields and layer segments were analyzed at screening (pre-treatment) and at Week 12 for Group 1 subjects and at Week 32 for Group 2 subjects. In addition to the quantitative analysis of OCT images, a qualitative assessment of the OCT images at baseline (pre-treatment) was performed to identify GA anywhere in the retina, in the fovea (1-mm central subfield), and in the foveal center. Quantitative analysis of the OCT images was also performed to measure changes in anatomical measurements over time.

[2] = tested on: human retinal Müller cells (MIO-M1); experiment: MTT cell viability of human Müller cells (MIO-M1); assay type: cell-based; settings: 24 hours, normalized to untreated control as 100%
Method: Purpose: To determine the effects of risuteganib and anti-VEGF drugs on the cell viability of cultured human retinal Müller cells (MIO-M1).
Methods: The immortalized human retinal Müller cell line (MIO-M1) was obtained from the Department of Cell Biology of the University College, London. Cells were cultured in Dulbecco's Modified Eagle's Medium (DMEM) and plated in 96-well plates for 24 hours before treatment with 0.5×, 1× or 2× concentrations of 1 mg/50 μL risuteganib, or 1× of ranibizumab, bevacizumab or aflibercept. Dosage was based on clinical dose of each compound. The experiments were repeated 3 times with 7-8 replicates each. After 24 hours of drug treatment, MTT NAD(P)H-dependent colorimetric assay was used to assess the number of viable cells present in the cultures. Absorbance ratios were normalized to untreated control as 100%. Statistical analysis was performed in GraphPad Prism software program.

[3] = baseline to Week 32, nonresponder eyes n = 12
[4] = baseline to Week 32, responder eyes n = 10
[5] = baseline to Week 32, responder vs nonresponder eyes
[6] = baseline to Week 32, risuteganib arm n = 22
[7] = risuteganib arm (Week 32) vs sham arm (Week 12)

Compound: C[C@@H](O)[C@H](NC(=O)[C@H](CS(=O)(=O)O)NC(=O)CNC(=O)[C@H](CCCNC(=N)N)NC(=O)CN)C(=O)N1CCC[C@H]1C(=O)O [risuteganib, Glycyl-L-arginylglycyl-3-sulfo-L-alanyl-L-threonyl-L-proline] (H-GRG[Cya]TP-OH)
- Change in EZ defect area [1, 3]: 0.014 mm^2
- Mean change in mean thickness: Inner retina, central subfield [1, 3]: −2.250 μm
- Mean change in mean thickness: Inner retina, foveal center [1, 3]: 9.917 μm
- Mean change in mean thickness: Outer retina, central subfield [1, 3]: −5.417 μm
- Mean change in mean thickness: Outer retina, foveal center [1, 3]: −17.833 μm
- Mean change in mean thickness: Photoreceptor, central subfield [1, 3]: −1.333 μm
- Mean change in mean thickness: Photoreceptor, foveal center [1, 3]: 3.833 μm
- Mean change in mean thickness: RPEDC, central subfield [1, 3]: 1.083 μm
- Mean change in mean thickness: RPEDC, foveal center [1, 3]: −2.250 μm
- Mean change in total volume: Inner retina, central subfield [1, 3]: −0.002 mm^3
- Mean change in total volume: Outer retina, central subfield [1, 3]: −0.004 mm^3
- Mean change in total volume: Photoreceptor, central subfield [1, 3]: −0.001 mm^3
- Mean change in total volume: RPEDC, central subfield [1, 3]: 0.001 mm^3
- Change in EZ defect area [1, 4]: 0.020 mm^2
- Mean change in mean thickness: Inner retina, central subfield [1, 4]: 5.200 μm
- Mean change in mean thickness: Inner retina, foveal center [1, 4]: 8.400 μm
- Mean change in mean thickness: Outer retina, central subfield [1, 4]: −2.400 μm
- Mean change in mean thickness: Outer retina, foveal center [1, 4]: −8.000 μm
- Mean change in mean thickness: Photoreceptor, central subfield [1, 4]: −1.000 μm
- Mean change in mean thickness: Photoreceptor, foveal center [1, 4]: 3.100 μm
- Mean change in mean thickness: RPEDC, central subfield [1, 4]: −9.800 μm
- Mean change in mean thickness: RPEDC, foveal center [1, 4]: −8.100 μm
- Mean change in total volume: Inner retina, central subfield [1, 4]: 0.004 mm^3
- Mean change in total volume: Outer retina, central subfield [1, 4]: −0.002 mm^3
- Mean change in total volume: Photoreceptor, central subfield [1, 4]: −0.001 mm^3
- Mean change in total volume: RPEDC, central subfield [1, 4]: −0.008 mm^3
- Change in EZ defect area, Difference [1, 5]: 0.006 mm^2
- Mean change in mean thickness: Inner retina, central subfield, Difference [1, 5]: 7.450 μm
- Mean change in mean thickness: Inner retina, foveal center, Difference [1, 5]: −1.517 μm
- Mean change in mean thickness: Outer retina, central subfield, Difference [1, 5]: 3.017 μm
- Mean change in mean thickness: Outer retina, foveal center, Difference [1, 5]: 9.833 μm
- Mean change in mean thickness: Photoreceptor, central subfield, Difference [1, 5]: 0.333 μm
- Mean change in mean thickness: Photoreceptor, foveal center, Difference [1, 5]: −0.733 μm
- Mean change in mean thickness: RPEDC, central subfield, Difference [1, 5]: −10.883 μm
- Mean change in mean thickness: RPEDC, foveal center, Difference [1, 5]: −5.850 μm
- Mean change in total volume: Inner retina, central subfield, Difference [1, 5]: 0.006 mm^3
- Mean change in total volume: Outer retina, central subfield, Difference [1, 5]: 0.003 mm^3
- Mean change in total volume: Photoreceptor, central subfield, Difference [1, 5]: 0.000 mm^3
- Mean change in total volume: RPEDC, central subfield, Difference [1, 5]: −0.009 mm^3
- Change in EZ defect area [1, 6]: 0.015 mm^2
- Mean change in mean thickness: Inner retina, central subfield [1, 6]: 1.565 μm
- Mean change in mean thickness: Inner retina, foveal center [1, 6]: 6.696 μm
- Mean change in mean thickness: Inner retina, inferior subfield [1, 6]: −0.065 μm
- Mean change in mean thickness: Inner retina, nasal subfield [1, 6]: −0.783 μm
- Mean change in mean thickness: Inner retina, superior subfield [1, 6]: −3.022 μm
- Mean change in mean thickness: Inner retina, temporal subfield [1, 6]: 0.217 μm
- Mean change in mean thickness: Outer retina, central subfield [1, 6]: −3.978 μm
- Mean change in mean thickness: Outer retina, foveal center [1, 6]: −9.543 μm
- Mean change in mean thickness: Outer retina, inferior subfield [1, 6]: −2.457 μm
- Mean change in mean thickness: Outer retina, nasal subfield [1, 6]: −1.196 μm
- Mean change in mean thickness: Outer retina, superior subfield [1, 6]: −0.065 μm
- Mean change in mean thickness: Outer retina, temporal subfield [1, 6]: −2.283 μm
- Mean change in mean thickness: Photoreceptor, central subfield [1, 6]: −1.087 μm
- Mean change in mean thickness: Photoreceptor, foveal center [1, 6]: 1.717 μm
- Mean change in mean thickness: Photoreceptor, inferior subfield [1, 6]: −0.239 μm
- Mean change in mean thickness: Photoreceptor, nasal subfield [1, 6]: −0.087 μm
- Mean change in mean thickness: Photoreceptor, superior subfield [1, 6]: 0.130 μm
- Mean change in mean thickness: Photoreceptor, temporal subfield [1, 6]: −0.152 μm
- Mean change in mean thickness: RPEDC, central subfield [1, 6]: −1.500 μm
- Mean change in mean thickness: RPEDC, foveal center [1, 6]: −1.652 μm
- Mean change in mean thickness: RPEDC, inferior subfield [1, 6]: 0.457 μm
- Mean change in mean thickness: RPEDC, nasal subfield [1, 6]: 0.739 μm
- Mean change in mean thickness: RPEDC, superior subfield [1, 6]: 1.739 μm
- Mean change in mean thickness: RPEDC, temporal subfield [1, 6]: 0.870 μm
- Mean change in total volume: Inner retina, central subfield [1, 6]: 0.001 mm^3
- Mean change in total volume: Inner retina, inferior subfield [1, 6]: 0.000 mm^3
- Mean change in total volume: Inner retina, nasal subfield [1, 6]: −0.001 mm^3
- Mean change in total volume: Inner retina, superior subfield [1, 6]: −0.005 mm^3
- Mean change in total volume: Inner retina, temporal subfield [1, 6]: 0.000 mm^3
- Mean change in total volume: Outer retina, central subfield [1, 6]: −0.003 mm^3
- Mean change in total volume: Outer retina, inferior subfield [1, 6]: −0.004 mm^3
- Mean change in total volume: Outer retina, nasal subfield [1, 6]: −0.002 mm^3
- Mean change in total volume: Outer retina, superior subfield [1, 6]: −0.000 mm^3
- Mean change in total volume: Outer retina, temporal subfield [1, 6]: −0.004 mm^3
- Mean change in total volume: Photoreceptor, central subfield [1, 6]: −0.001 mm^3
- Mean change in total volume: Photoreceptor, inferior subfield [1, 6]: −0.001 mm^3
- Mean change in total volume: Photoreceptor, nasal subfield [1, 6]: −0.000 mm^3
- Mean change in total volume: Photoreceptor, superior subfield [1, 6]: 0.000 mm^3
- Mean change in total volume: Photoreceptor, temporal subfield [1, 6]: −0.000 mm^3
- Mean change in total volume: RPEDC, central subfield [1, 6]: −0.001 mm^3
- Mean change in total volume: RPEDC, inferior subfield [1, 6]: 0.001 mm^3
- Mean change in total volume: RPEDC, nasal subfield [1, 6]: 0.001 mm^3
- Mean change in total volume: RPEDC, superior subfield [1, 6]: 0.003 mm^3
- Mean change in total volume: RPEDC, temporal subfield [1, 6]: 0.001 mm^3
- Change in EZ defect area, Difference [1, 7]: 0.025 mm^2
- Mean change in mean thickness: Inner retina, central subfield, Difference [1, 7]: 0.690 μm
- Mean change in mean thickness: Inner retina, foveal center, Difference [1, 7]: 15.404 μm
- Mean change in mean thickness: Inner retina, inferior subfield, Difference [1, 7]: −1.607 μm
- Mean change in mean thickness: Inner retina, nasal subfield, Difference [1, 7]: −0.949 μm
- Mean change in mean thickness: Inner retina, superior subfield, Difference [1, 7]: −4.188 μm
- Mean change in mean thickness: Inner retina, temporal subfield, Difference [1, 7]: 0.092 μm
- Mean change in mean thickness: Outer retina, central subfield, Difference [1, 7]: −3.812 μm
- Mean change in mean thickness: Outer retina, foveal center, Difference [1, 7]: −14.794 μm
- Mean change in mean thickness: Outer retina, inferior subfield, Difference [1, 7]: 0.460 μm
- Mean change in mean thickness: Outer retina, nasal subfield, Difference [1, 7]: 1.388 μm
- Mean change in mean thickness: Outer retina, superior subfield, Difference [1, 7]: 0.768 μm
- Mean change in mean thickness: Outer retina, temporal subfield, Difference [1, 7]: −1.158 μm
- Mean change in mean thickness: Photoreceptor, central subfield, Difference [1, 7]: −2.545 μm
- Mean change in mean thickness: Photoreceptor, foveal center, Difference [1, 7]: 1.342 μm
- Mean change in mean thickness: Photoreceptor, inferior subfield, Difference [1, 7]: −0.781 μm
- Mean change in mean thickness: Photoreceptor, nasal subfield, Difference [1, 7]: −0.379 μm
- Mean change in mean thickness: Photoreceptor, superior subfield, Difference [1, 7]: −0.161 μm
- Mean change in mean thickness: Photoreceptor, temporal subfield, Difference [1, 7]: −0.694 μm
- Mean change in mean thickness: RPEDC, central subfield, Difference [1, 7]: −0.167 μm
- Mean change in mean thickness: RPEDC, foveal center, Difference [1, 7]: −1.402 μm
- Mean change in mean thickness: RPEDC, inferior subfield, Difference [1, 7]: 1.623 μm
- Mean change in mean thickness: RPEDC, nasal subfield, Difference [1, 7]: −0.511 μm
- Mean change in mean thickness: RPEDC, superior subfield, Difference [1, 7]: 2.739 μm
- Mean change in mean thickness: RPEDC, temporal subfield, Difference [1, 7]: 2.536 μm
- Mean change in total volume: Inner retina, central subfield, Difference [1, 7]: 0.001 mm^3
- Mean change in total volume: Inner retina, inferior subfield, Difference [1, 7]: −0.002 mm^3
- Mean change in total volume: Inner retina, nasal subfield, Difference [1, 7]: −0.002 mm^3
- Mean change in total volume: Inner retina, superior subfield, Difference [1, 7]: −0.007 mm^3
- Mean change in total volume: Inner retina, temporal subfield, Difference [1, 7]: 0.000 mm^3
- Mean change in total volume: Outer retina, central subfield, Difference [1, 7]: −0.003 mm^3
- Mean change in total volume: Outer retina, inferior subfield, Difference [1, 7]: 0.001 mm^3
- Mean change in total volume: Outer retina, nasal subfield, Difference [1, 7]: 0.002 mm^3
- Mean change in total volume: Outer retina, superior subfield, Difference [1, 7]: 0.001 mm^3
- Mean change in total volume: Outer retina, temporal subfield, Difference [1, 7]: −0.002 mm^3
- Mean change in total volume: Photoreceptor, central subfield, Difference [1, 7]: −0.002 mm^3
- Mean change in total volume: Photoreceptor, inferior subfield, Difference [1, 7]: −0.002 mm^3
- Mean change in total volume: Photoreceptor, nasal subfield, Difference [1, 7]: −0.001 mm^3
- Mean change in total volume: Photoreceptor, superior subfield, Difference [1, 7]: −0.000 mm^3
- Mean change in total volume: Photoreceptor, temporal subfield, Difference [1, 7]: −0.001 mm^3
- Mean change in total volume: RPEDC, central subfield, Difference [1, 7]: −0.000 mm^3
- Mean change in total volume: RPEDC, inferior subfield, Difference [1, 7]: 0.002 mm^3
- Mean change in total volume: RPEDC, nasal subfield, Difference [1, 7]: −0.001 mm^3
- Mean change in total volume: RPEDC, superior subfield, Difference [1, 7]: 0.005 mm^3
- Mean change in total volume: RPEDC, temporal subfield, Difference [1, 7]: 0.004 mm^3
- Cell viability (MTT) ([2]; 0.5× of 1 mg/50 μL): 111.3±2.189
- Cell viability (MTT) ([2]; 1× of 1 mg/50 μL): 113.5±13.5
- Cell viability (MTT) ([2]; 2× of 1 mg/50 μL): 100.3±7.8
